According to patent publication US6972287B1, “Method of inhibiting amyloid protein aggregation and imaging amyloid deposits” (Pfizer Inc., priority 1999, dated 2005):
Several values for one entry are separate records, joined by “and”; a condition that tells them apart may be missing. Equal entries are not always repeated. Structures can show the parent of a compound that is named as a salt.

How the values were obtained:
Format in all cases: biochemical
[1] = target: T1, Aβ(1-40) (Homo sapiens, UniProt P05067); test: BASSR (Beta-Amyloid Self-Seeding Radioassay), inhibitors of self-seeded amyloid fibril growth
T1 construct: […]; purchased Bachem, Torrance, Calif
T1 sequence (P05067 672-711 limits assumed): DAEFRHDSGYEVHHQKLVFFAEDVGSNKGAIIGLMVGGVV
Procedure: BASSR (Beta-Amyloid Self-Seeding Radioassay)
(§1) An assay for inhibitors of self-seeded amyloid fibril growth
Assay Buffer—50 mM sodium phosphate, pH 7.5, 100 mM NaCl, 0.02% NaN3, 1 M urea (filter and store at 4° C.).
(§2) Typically, the solution should be stored until no lag phase is seen in the assay.
^125I-labeled Aβ(1-40)—150K-350K cpm/μL in 100% acetonitrile—0.1% trifluoroacetic acid (TFA)—1% β-mercaptoethanol (aliquots stored at −20° C.). ^125I-labeled Aβ(1-40) can be made in accordance with the procedure set forth by H. LeVine, III in Neurobiol. Aging, 16, 755, (1995), which is hereby incorporated by reference, or this reagent may be purchased from Amersham, Arlington Heights, Ill.
The following are the amounts of the components of the reaction mixture sufficient for 50 assay wells:
• 1) Prepare reaction mixture above by mixing components and storing on ice. • 2) Pipet 14.5 μL of reaction mixture into each of 50 wells on a polypropylene U-bottom 96-well microtiter plate on ice. (Costar 3794). • 3) Add 1.7 μL of diluted compound to be tested to each well in a column of eight, including solvent control. Serial 3-fold dilutions from 1 mM (100 μM final) in assay buffer−urea=7 dilutions+zero. Each 96-well plate can therefore accommodate 11 samples+1 Congo Red control (0.039-5 μM final in 2-fold steps). • 4) Seal the plate with aluminum film (Beckman 538619) and incubate for 10 minutes on ice. • 5) Raise the temperature to 37° C. and incubate for 3 to 5 hours (depending on the lot of the peptide). • 6) Remove the aluminum film and add 200 μL/well of ice cold assay buffer with urea, collecting the radiolabeled fibrils by vacuum filtration through 0.2 μm pore size GVWP filters in 96-well plates (Millipore MAGV N22, Bedford, Mass.). Determine the radioactivity of the filters using standard methods well-known to those skilled in the art. BASST (Beta-Amyloid Self-Seeding, Thioflavin T)

[2] = target: T1, Aβ(1-40); test: BASST (Beta-Amyloid Self-Seeding, Thioflavin T), inhibitors of self-seeded amyloid fibril growth
Procedure: as §1
Assay Buffer—50 mM sodium phosphate, pH 7.5, 100 mM NaCl, 0.02% NaN3, 1 M urea (filter and store at 4° C.)
as §2
The following are the amounts of the components of the reaction mixture that result in each of the 50 assay wells:
• 1) Prepare the reaction mix above by mixing the components and storing on ice. • 2) Pipet 14.5 μL of reaction mixture into each of 50 wells of a polystyrene U-bottom 96-well microtiter plate (Corning 25881-96) on ice. • 3) Add 1.7 μL of diluted compound to be tested to each well in a column of eight, including solvent control. Serial 3-fold dilutions from 1 mM (100 μM final) in assay buffer−urea=7 dilutions+zero. Each 96-well plate can therefore accommodate 11 samples+1 Congo Red control (0.039-5 μM final in 2-fold steps). • 4) Seal the plate with aluminum film and incubate for 10 minutes on ice. • 5) Raise the temperature to 37° C. and incubate for 3 to 5 hours (depends on the lot of the peptide). • 6) Remove the aluminum film and add 250 μL/well of 5 μM thioflavin T (ThT) [T-3516, Sigma-Aldrich] in 50 mM glycine-NaOH, pH 8.5. Read fluorescence on a plate reader (ex=440 nm/20 nm; em=485 nm/20 nm) within 5 minutes. BAPA (Beta-Amyloid Peptide Aggregation)

[3] = target: T2, Aβ (1-42) (Homo sapiens, UniProt P05067); test: BATYM assay (Aβ (1-42) aggregation, Thioflavin T fluorescence); settings: Aβ 1-42 final concentration 100 μM, 37° C., 1 day, letter = synthetic lot
T2 construct: Required Aβ (1-42) (California Peptide) was dried from its hexafluoroisopropanol (HFIP) stock solution; purchased California Peptide
T2 sequence (P05067 672-713 limits assumed): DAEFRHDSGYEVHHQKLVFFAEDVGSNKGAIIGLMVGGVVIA
Procedure: Required Aβ (1-42) (California Peptide) was dried from its hexafluoroisopropanol (HFIP) stock solution. The Aβ (1-42) was dissolved in dimethylsulfoxide (DMSO) and then mixed with phosphate buffered saline (PBS) (pH 7.4). The mixed Aβ (1-42) solution was filtered with a 0.2 μm Omnipore membrane syringe filter Millipore, Bedford, Mass.). The compound to be tested in DMSO (50 times concentrate) was put into each well (0.5 μL/well) of a 96-well plate. The Aβ (1-42) solution was added into each well (24.5 μL/well). The plate was centrifuged at 1,000 g for 5 minutes and incubated at 37° C. for 1 day (Aβ 1-42; final concentration 100 μM).
After incubation Thioflavin T (ThT) (30 μM) solution in glycine-NaOH buffer (pH 8.5, 50 mM) was added into each well (250 μL/well), fluorescence was measured (ex=440/20 nm, em=485/20 nm) using a fluorescence plate reader. The inhibitory activity was calculated as the reduction of fluorescence with the following formula: Inhibition (%)={(F(Aβ)−F(Aβ+compound)}/{F(Aβ)−[…]}×100
The IC50s were calculated by a curve fitting program using the following equation. The data were obtained from two different experiments in triplicate.
x=Concentration of tested compound (M),

[4] = target: T3, Aβ (1-40) peptide (Homo sapiens, UniProt P05067); test: BAPA (Beta-Amyloid Peptide Aggregation, pH 6.0, filtration); settings: Aβ (1-40) 33 μM, pH 6.0, 2 to 4 hours at room temperature; replicate values; letter = synthetic lot
T3 construct: 10 μL 0.5 mg/mL Aβ (1-40) peptide in 20% HFIP
T3 sequence (P05067 672-711 limits assumed): as the sequence (P05067 672-711 limits assumed) above
Procedure: Each 96-well plate can therefore accommodate 11 samples+1 Congo Red control (0.039-5 μM final in 2-fold steps). • 4) Seal the plate with aluminum film and incubate for 10 minutes on ice. • 5) Raise the temperature to 37° C. and incubate for 3 to 5 hours (depends on the lot of the peptide). • 6) Remove the aluminum film and add 250 μL/well of 5 μM thioflavin T (ThT) [T-3516, Sigma-Aldrich] in 50 mM glycine-NaOH, pH 8.5. […] The purpose of this assays is to provide a higher volume method of assaying the amount of beta amyloid aggregation using an endpoint assay based on filtration. In this assay, hexafluoroisopropanol (HFIP) is used to break down the initial amyloid peptide to a monomer state and use a concentration of 33 μM which is high enough so that aggregation will occur at pH 6.0 in several hours. Methods: […] Then, we incubate for 2 to 4 hours at room temperature. […] We wash the filter plate with 100 μL of the same phosphate buffer. Aggregation was detected on a Microbeta counter after impregnating the filters with Meltilex (1450-441) and is corrected for background.

[5] = 30 μM soluble Aβ(1-40) + 125I-labeled Aβ(1-40), 37° C., 3 to 5 hours, replicate values, letter = synthetic lot, ppt = precipitate, V-shaped = inhibition followed by precipitation
[6] = 30 μM soluble Aβ(1-40), 37° C., 3 to 5 hours, thioflavin T fluorescence, replicate values, letter = synthetic lot, read-out: BASST (IC50 = μM)

Compound | IC50 [1] [µM] | IC50 ([2]; read-out: BASST (IC50 = μM)) [µM] | IC50 [3] | IC50 [4] | IC50 [1, 5] | IC50 [2, 6] | IC50 ([2]; BASST (IC50 = μM)) [µM]
2-{4-[3-(3-Aminophenyl)propyl]phenylamino}benzoic acid [Example 23] | 20 | 2 | > 100 µM | 17 µM |  |  | 
2-{4-[5-(3,4-Dichloro-phenyl)pentyl]phenylamino}methoxy-5-nitrobenzoic acid [Example 14] |  |  | 10.9 µM | > 10 µM | 18 µM and 8 µM and 6 µM and 7 µM | 1 µM | 
O=C(O)c1ccccc1Nc1ccc(CCc2cc(O)c(O)c(O)c2)cc1 [Example 6, 2-{4-[2-(3,4,5-Trihydroxy-phenyl)-ethyl]phenylamino}benzoic acid] |  |  | 21.5 µM | > 60 µM | 15 µM and 21 µM and 20 µM and 40 µM | 4 µM and 1 µM and 3 µM | 
COc1cc(Nc2ccc(CCCc3ccc(Cl)c(Cl)c3)cc2)c(C(=O)O)cc1[N+](=O)[O-] [Example 7] |  |  | 8.83 µM | 39 µM | 18 µM and 13 µM and 12 µM and 20 µM | 2 µM | 
O=C(O)c1ccccc1Nc1ccc(CCCCc2ccc(Cl)c(Cl)c2)cc1 [Example 10, 2-{4-[4-(3,4-Dichlorophenyl)butyl]phenylamino}benzoic acid] |  |  | 75.7 µM | 67 µM | 70 µM and 50 µM | 4 µM | 
O=C(O)c1cc([N+](=O)[O-])ccc1Nc1ccc(CCCCc2ccc(Cl)c(Cl)c2)cc1 [Example 11, 2-{4-[4-(3,4-Dichloro-phenyl)-butyl]-phenylamino}-5-nitro-benzoic acid] |  |  | 5.62 µM and 6.78 µM | 23 µM and 9 µM | 18 µM and 20 µM (2×) and > 100 µM (2×) and 21 µM and 30 µM | 1 µM (3×) and 3 µM and 800 nM | 
O=C(O)c1cc([N+](=O)[O-])cc([N+](=O)[O-])c1Nc1ccc(CCCCc2ccc(Cl)c(Cl)c2)cc1 [Example 12, 2-{4-[4-(3,4-Dichlorophenyl)butyl]phenylamino}-3,5-dinitrobenzoic acid] |  |  | 3.93 µM | > 60 µM | 20 µM | 1 µM | 
O=C(O)c1ccccc1Nc1ccc(CCc2ccc(Cl)c(C(F)(F)F)c2)cc1 [Example 17] | > 100 | 6.2 | 64.5 µM | > 60 µM and 41 µM |  |  | 
Nc1ccc(CCCc2ccc(Nc3ccccc3C(=O)O)cc2)cc1 [Example 22, 2-{4-[3-(4-Aminophenyl)propyl]phenylamino}benzoic acid] |  |  | > 100 µM | 24 µM | 3 µM | 9 µM | 
CCN(CC)c1ccc(CCc2ccc(Nc3ccccc3C(=O)O)cc2)cc1 [Example 26, 2-{4-[2-(4-Diethylaminophenyl)ethyl]phenylamino}benzoic acid monohydrochloride monohydrate] |  |  | > 100 µM | 57 µM |  |  | 1
CCCN(CCC)c1cccc(CCCc2ccc(Nc3ccccc3C(=O)O)cc2)c1 [Example 27, 2-{4-[3-(3-Dipropylaminophenyl)propyl]phenylamino}benzoic acid] |  |  | 19.8 µM | 74 µM | > 100 µM | 3 µM | 
CCN(CC)c1ccc(CCCc2ccc(N(CC)c3ccccc3C(=O)O)cc2)cc1 [Example 30, 2-(N-{4-[3-(4-Diethylaminophenyl)propyl]phenyl}-N-ethylamino)benzoic acid] |  |  | 75.3 µM | 38 µM | 30 µM and 20 µM | 4 µM and 2 µM | 
CCN(CC)c1cccc(CCCc2ccc(Nc3ccccc3C(=O)O)cc2)c1 [Example 32, 2-{4-[3-(3-Diethylaminophenyl)propyl]phenylamino}benzoic acid] |  |  | 29.2 µM | 96 µM | > 100 µM | 1 µM | 
CN(C)c1ccc(CCCc2ccc(Nc3ccccc3C(=O)O)cc2)cc1 [Example 34, 2-{4-[3-(4-Dimethylaminophenyl)propyl]phenylamino}benzoic acid] |  |  | 45 µM | 48 µM | 45 µM | 3 µM | 
CCCN(CCC)c1ccc(CCCc2ccc(Nc3ccccc3C(=O)O)cc2)cc1 [Example 43, 2-{4-[3-(4-Dipropylaminophenyl)propyl]phenylamino}benzoic acid] |  |  | 24.2 µM | 63 µM | > 100 µM | 0.3 µM | 
CCCCN(CCCC)c1ccc(CCCc2ccc(Nc3ccccc3C(=O)O)cc2)cc1 [Example 44, 2-{4-[3-(4-Dibutylaminophenyl)propyl]phenylanino}benzoic acid] |  |  | 26.5 µM | 52 µM | > 100 µM | 1 µM | 
CCCCN(CCCC)c1cccc(CCCc2ccc(Nc3ccccc3C(=O)O)cc2)c1 [Example 45, 2-{4-[3-(3-Dibutylaminophenyl)propyl]phenylamino}benzoic acid] |  |  | 21.5 µM | 32 µM | > 100 µM | 1 µM | 
Clc1ccc(CCc2ccc(Nc3ccccc3-c3nnn[nH]3)cc2)cc1Cl [Example 68, {4-[2-(3,4-Dichloro-phenyl)-ethyl]-phenyl}-[2-(1H-tetrazol-5-yl)phenyl]-amine] |  |  | > 100 µM | 110 µM | > 100 µM | 1 µM | 
O=C(O)c1ccccc1Nc1ccc(CCc2ccc(Cl)c(Cl)c2)cc1 [Example 117, 2-{4-[2-(3,4-Dichloro-phenyl)-ethyl]-phenylamino}-benzoic acid monosodium] |  |  | 61.3 µM | > 100 µM | > 100 µM | 3 µM | 
